Assay type in all cases: cell-based
For test [1], the target named is T1, GPR54 (Homo sapiens, UniProt Q969F8). In words: Inositol phosphate (IP) stimulation assay in CHO/gpr-54 cells. Further details: G. Vassart, Univ; Brussels. Conditions: CHO cells stably-expressing human gpr-54.
Method: Inositol-3-phoshate Stimulation Assay—Cell monolayers had 0.5 mls HEPES modified DMEM supplemented with 1% Penicillin/Streptomycin for 30 mins at 37° C. to block IP3 breakdown. Cells were then stimulated with 0.5 mls Kisspeptin-10 and analogues (10 pM-1 uM) diluted at 1:1000 in the above media for 1 hr at 37° C., then in 10 mM Formic acid at 4° C. for 1 hr to lyse cells. Lysate was then transferred to plastic tubes containing 0.5 mls Dowex resin to bind the radioactive IP3 and the resin was then washed with 1 ml H2O. The resin was then washed with 60 mM NH4 formate/5 mM Sodium tetraborate followed by 1M NH4 formate/0.1M Formic acid to release the bound radiation. Then 800 μls of the radioactive solution were transferred to scintillation vials containing 2.5 mls scintillation fluid and radioactivity counted on a Beta counter for 60 seconds.
IP stimulation refers to intrinsic residual agonist activity where estimateable.
The cells were maintained in Dulbecco's modified Eagle's medium (DMEM; Sigma) supplemented with 10% fetal calf serum, 2% glutamine and 1% penicillin (10,000 units/ml)/streptomycin (10,000 mg/ml) at 37° C. in a humidified 5% CO2 atmosphere.
Prior to stimulation CHO/gpr-54 cells were washed twice with Dulbecco's phosphate-buffered saline (DPBS; without calcium or magnesium) then incubated overnight with ^3H-myoinositol, labeled HEPES-modified DMEM with 1% penicillin/streptomycin at 37° C. HEPES-modified DMEM supplemented with 1% penicillin/streptomycin and 1% lithium chloride (0.5 ml) was added to cells for 30 min at 37° C. to block IP hydrolysis. Cells were then stimulated with 0.5 ml kisspeptin-10 and analogues (10 pM-1 μM) diluted at 1:100 in the above media for 1 h at 37° C., then with 10 mM formic acid at 4° C. for 1 h to lyse cells. Lysates were transferred to plastic tubes containing 0.5 ml Dowex resin to bind the radioactive IP and the resin was then washed with 1 ml water. The resin was next washed with 60 mM ammonium formate/5 mM sodium tetraborate. followed by 1M ammonium formate/0.1M formic acid to release the bound radiation. Then 800 μl of the radioactive solution were transferred to scintillation vials containing 2.5 ml scintillation fluid and radioactivity counted on a Beta counter for 60 sec. Experiments were repeated 3-5 times. IP production was plotted as mean values±SEM and analyzed by using a Student's t-Test (p≧0.05).
Test [2] concerns the target T1, GPR54. In words: Inositol phosphate (IP) antagonism assay: inhibition of 10 nM kisspeptin-10 stimulation of IP in CHO/gpr-54 cells. More on the design: G. Vassart, Univ; Brussels. To be noted: for IC50 / Inhibition of IP stimulation by 10 nM Agonist: % Inhibition of Max: CHO cells, 10 nM kisspeptin-10; for IC50: unit inferred, given in M. How it is done: Inositol-3-phoshate Antagonistic Assay—Cell monolayers had 0.5 mls HEPES modified DMEM supplemented with […] for 30 mins at 37° C. to block IP3 breakdown. Cells were then stimulated with 0.25 mls 10 nM Kisspeptin-10 plus 0.25 mls of 10 nM Kisspeptin-10 or analogues (10 pM-10 uM) diluted at 1:1000 in the above media for 1 hr at 37° C., then in 10 mM Formic acid at 4° C. for 1 hr to lyse cells. Lysate was then transferred to plastic tubes containing 0.5 mls Dowex resin to bind the radioactive IP3 and the resin was then washed with 1 ml H2O. The resin was then washed with 60 mM NH4 formate/5 mM Sodium tetraborate followed by 1M NH4 formate/0.1M Formic acid to release the bound radiation. Then 800 μls of the radioactive solution were transferred to scintillation vials containing 2.5 mls scintillation fluid and radioactivity counted on a Beta counter for 60 seconds.
Chinese hamster ovary (CHO) cells stably-expressing the human gpr-54 receptor (CHO/gpr-54) were obtained from Prof. G. Vassart, Univ. Brussels. The cells were maintained in Dulbecco's modified Eagle's medium (DMEM; Sigma) supplemented with 10% fetal calf serum, 2% glutamine and 1% penicillin (10,000 units/ml)/streptomycin ([…]) at 37° C. in a humidified 5% CO2 atmosphere.
Experiments were repeated 3-5 times. IP production was plotted as mean values±SEM and analyzed using a Student's t-Test ([…]).

In test [3] the test system is HUVECs (Human Umbilical Vein Endothelial Cells). In words: Cell migration (wound healing) assay in HUVECs. To be noted: 22 hrs. The protocol:
Human Umbilical Vein Endothelial Cells (HUVECs) isolated from neonatal umbilical cord were used as they endogenously express gpr-54, which is though to be involved in cell migration in the placenta. Chinese hamster ovary (CHO) cells which stably express the human gpr-54 receptor were used as a model cell line for wound healing assays. […] Complete media was added along with 1 nM Kisspeptin-10 for HUVECs and 100 nM Kisspeptin-10 for CHO cells, the optimal concentrations to inhibit cell migration (wound healing) in each cell type, in the presence and absence of antagonist 233, 234, 273 and 276 for HUVECs and 234 for CHOs. […] Cells were photographed on the axiovert 2000 at 20× magnification in phase contrast (Hori et al., 2001. Metastin suppresses the motility and growth of CHO cells transfected with its receptor. Biochem Biophys Res Commun 286, 958-963; Stafford et al., 2002, Identification and characterization of mouse metastasis-suppressor KiSS1 and its G-protein-coupled receptor. Cancer Res 62, 5399-5404).

Non-standard residues stand in square brackets, D forms with d. Residues, ends and D or L forms follow the SMILES beside them.

T1 sequence (Q969F8 whole entry): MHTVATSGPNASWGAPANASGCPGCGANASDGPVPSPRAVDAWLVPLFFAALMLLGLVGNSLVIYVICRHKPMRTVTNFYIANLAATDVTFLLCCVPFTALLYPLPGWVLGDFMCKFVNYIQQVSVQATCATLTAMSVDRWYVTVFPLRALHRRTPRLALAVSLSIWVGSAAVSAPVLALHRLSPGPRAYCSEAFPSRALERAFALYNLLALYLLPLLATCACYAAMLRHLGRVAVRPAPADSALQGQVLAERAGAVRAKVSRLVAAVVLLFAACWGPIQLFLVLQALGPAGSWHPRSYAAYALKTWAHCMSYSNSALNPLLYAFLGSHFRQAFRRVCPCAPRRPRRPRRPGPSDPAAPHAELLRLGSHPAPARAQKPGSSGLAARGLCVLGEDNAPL

As for `CC(=O)N[C@H](Cc1ccc(O)cc1)C(=O)N[C@@H](CC(N)=O)C(=O)N[C@@H](Cc1c[nH]c2ccccc12)C(=O)N[C@@H](CC(N)=O)C(=O)NCC(=O)N[C@@H](Cc1ccccc1)C(=O)NCC(=O)N[C@H](Cc1c[nH]c2ccccc12)C(=O)N[C@@H](CCCNC(=N)N)C(=O)N[C@@H](Cc1ccccc1)C(N)=O` [Peptide 230] (Ac-[dY]NWNGFG[dW]RF-NH2), on GPR54 [1], the “stimulation of IP by the peptide alone” value is “little or no stimulation”. For the same molecule, the IC50 – broadly, the midpoint of a concentration-inhibition curve – against GPR54 [2] stood at 50 nM.
Regarding `CC(=O)N[C@@H](Cc1ccc(O)cc1)C(=O)N[C@H](CC(N)=O)C(=O)N[C@@H](Cc1c[nH]c2ccccc12)C(=O)N[C@@H](CC(N)=O)C(=O)NCC(=O)N[C@@H](Cc1ccccc1)C(=O)NCC(=O)N[C@H](Cc1c[nH]c2ccccc12)C(=O)N[C@@H](CCCNC(=N)N)C(=O)N[C@@H](Cc1ccccc1)C(N)=O` [Peptide 232] (Ac-Y[dN]WNGFG[dW]RF-NH2), the “stimulation of IP by the peptide alone” value on GPR54 [1] is on record as “little or no stimulation”. The molecule also had an IC50 against GPR54 [2] of 30 nM.
On to `CC(=O)N[C@@H](Cc1ccc(O)cc1)C(=O)N[C@@H](CC(N)=O)C(=O)N[C@H](C)C(=O)N[C@@H](CC(N)=O)C(=O)NCC(=O)N[C@@H](Cc1ccccc1)C(=O)NCC(=O)N[C@H](Cc1c[nH]c2ccccc12)C(=O)N[C@@H](CCCNC(=N)N)C(=O)N[C@@H](Cc1ccccc1)C(N)=O` [Peptide 235] (Ac-YN[dA]NGFG[dW]RF-NH2), for which, at GPR54 [1], the “stimulation of IP by the peptide alone” value is on record as “little or no stimulation”. In addition, the IC50 against GPR54 [2] came to 10 nM.
With `CC(=O)N[C@@H](Cc1ccc(O)cc1)C(=O)N[C@H](C)C(=O)N[C@@H](Cc1c[nH]c2ccccc12)C(=O)N[C@@H](CC(N)=O)C(=O)NCC(=O)N[C@@H](Cc1ccccc1)C(=O)NCC(=O)N[C@H](Cc1c[nH]c2ccccc12)C(=O)N[C@@H](CCCNC(=N)N)C(=O)N[C@@H](Cc1ccccc1)C(N)=O` [Peptide 236] (Ac-Y[dA]WNGFG[dW]RF-NH2), the “stimulation of IP by the peptide alone” value on GPR54 [1] is “little or no stimulation”. For the same molecule, at GPR54 [2], 50 nM corresponded to half-maximal inhibition (IC50).
For `CC(=O)N[C@H](Cc1ccccc1)C(=O)N[C@@H](CC(N)=O)C(=O)N[C@@H](Cc1c[nH]c2ccccc12)C(=O)N[C@@H](CC(N)=O)C(=O)NCC(=O)N[C@@H](Cc1ccccc1)C(=O)NCC(=O)N[C@H](Cc1c[nH]c2ccccc12)C(=O)N[C@@H](CCCNC(=N)N)C(=O)N[C@@H](Cc1ccccc1)C(N)=O` [Peptide 244] (Ac-[dF]NWNGFG[dW]RF-NH2), on GPR54 [2], the “Inhibition of IP stimulation by 10 nM Agonist: % Inhibition of Max” value (shortened to “Inhibition … % Inhibition of Max”) was determined as 60% and the IC50 was found to be 10 nM.
For the molecule `CC(=O)N[C@H](Cc1ccc(O)cc1)C(=O)N[C@@H](CC(N)=O)C(=O)N[C@@H](Cc1c[nH]c2ccccc12)C(=O)N[C@@H](CC(N)=O)C(=O)NCC(=O)N[C@H](Cc1c[nH]c2ccccc12)C(=O)NCC(=O)N[C@H](Cc1c[nH]c2ccccc12)C(=O)N[C@@H](CCCNC(=N)N)C(=O)N[C@@H](Cc1ccccc1)C(N)=O` [Peptide 245] (Ac-[dY]NWNG[dW]G[dW]RF-NH2), at GPR54 [2], the “Inhibition … % Inhibition of Max” value is 66%.
With `CC(=O)N[C@H](C)C(=O)N[C@@H](CC(N)=O)C(=O)N[C@@H](Cc1c[nH]c2ccccc12)C(=O)N[C@@H](CC(N)=O)C(=O)NCC(=O)N[C@H](Cc1c[nH]c2ccccc12)C(=O)NCC(=O)N[C@H](Cc1c[nH]c2ccccc12)C(=O)N[C@@H](CCCNC(=N)N)C(=O)N[C@@H](Cc1ccccc1)C(N)=O` [Peptide 246] (Ac-[dA]NWNG[dW]G[dW]RF-NH2), on GPR54 [2], the “Inhibition … % Inhibition of Max” value is on record as 80% and the IC50 was 50 nM.
Regarding `CC(=O)N[C@H](C)C(=O)N[C@@H](CC(N)=O)C(=O)N[C@@H](Cc1c[nH]c2ccccc12)C(=O)N[C@@H](CC(N)=O)C(=O)N[C@@H](CO)C(=O)N[C@@H](Cc1ccccc1)C(=O)NCC(=O)N[C@H](Cc1c[nH]c2ccccc12)C(=O)N[C@@H](CCCNC(=N)N)C(=O)N[C@@H](Cc1ccccc1)C(N)=O` [Peptide 247] (Ac-[dA]NWNSFG[dW]RF-NH2), the “Inhibition … % Inhibition of Max” value on GPR54 [2] is reported as 80%.
For `CC(=O)N[C@H](C)C(=O)N[C@@H](CC(N)=O)C(=O)N[C@@H](Cc1c[nH]c2ccccc12)C(=O)N[C@@H](CC(N)=O)C(=O)NCC(=O)N[C@@H](Cc1ccccc1)C(=O)NCC(=O)N[C@@H](Cc1c[nH]c2ccccc12)C(=O)N[C@@H](CCCNC(=N)N)C(=O)N[C@@H](Cc1ccccc1)C(N)=O` [Peptide 248] (Ac-[dA]NWNGFGWRF-NH2), the “Inhibition … % Inhibition of Max” value at GPR54 [2] came out at 64%.
Consider `CSCC[C@H](NC(=O)[C@H](CCCNC(=N)N)NC(=O)[C@H](CCCNC(=N)N)NC(C)=O)C(=O)N[C@@H](CCCCN)C(=O)N[C@@H](Cc1c[nH]c2ccccc12)C(=O)N[C@@H](CCCCN)C(=O)N[C@@H](CCCCN)C(=O)N[C@@H](Cc1ccc(O)cc1)C(=O)N[C@H](C)C(=O)N[C@@H](CC(N)=O)C(=O)N[C@@H](Cc1c[nH]c2ccccc12)C(=O)N[C@@H](CC(N)=O)C(=O)NCC(=O)N[C@@H](Cc1ccccc1)C(=O)NCC(=O)N[C@H](Cc1c[nH]c2ccccc12)C(=O)N[C@@H](CCCNC(=N)N)C(=O)N[C@@H](Cc1ccccc1)C(N)=O` [Peptide 271, ac.R-R-M-K-W-K-K-Y-(D)A-N-W-N-G-F-G-(D)W-R-F.z] (Ac-RRMKWKKY[dA]NWNGFG[dW]RF-NH2), for which, at GPR54 [2], the “Inhibition … % Inhibition of Max” value turned out to be 57% and the IC50 stood at 5 nM. Moreover, the kisspeptin antagonist function entry on GPR54 [2] (with N-terminal Antennapedia heptapeptide) is “retains kisspeptin antagonist function”.
For the molecule `CC(=O)N[C@H](C)C(=O)N[C@@H](CC(N)=O)C(=O)N[C@@H](Cc1c[nH]c2ccccc12)C(=O)N[C@@H](CC(N)=O)C(=O)N[C@H](CO)C(=O)N[C@@H](Cc1ccccc1)C(=O)NCC(=O)N[C@H](Cc1c[nH]c2ccccc12)C(=O)N[C@@H](CCCNC(=N)N)C(=O)N[C@@H](Cc1ccccc1)C(N)=O` [Peptide 273] (Ac-[dA]NWN[dS]FG[dW]RF-NH2), in test [3], the “inhibition of migration by 1 nM Kisspeptin in the presence of peptide” value is 10%. On GPR54 [2], the “Inhibition … % Inhibition of Max” value is on record as 79% and the IC50 came to 4 nM.
In the case of `CC(=O)N[C@H](C)C(=O)N[C@@H](CC(N)=O)C(=O)N[C@@H](Cc1c[nH]c2ccccc12)C(=O)N[C@@H](CC(N)=O)C(=O)N1CCC[C@H]1C(=O)N[C@@H](Cc1ccccc1)C(=O)NCC(=O)N[C@H](Cc1c[nH]c2ccccc12)C(=O)N[C@@H](CCCNC(=N)N)C(=O)N[C@@H](Cc1ccccc1)C(N)=O` [Peptide 274] (Ac-[dA]NWNPFG[dW]RF-NH2), on GPR54 [2], the “Inhibition … % Inhibition of Max” value worked out at 73% and the IC50 is 0.1 nM.
In the case of `CC(=O)N[C@H](C)C(=O)N[C@@H](CC(N)=O)C(=O)N[C@@H](Cc1c[nH]c2ccccc12)C(=O)N[C@@H](CC(N)=O)C(=O)N1CCC[C@@H]1C(=O)N[C@@H](Cc1ccccc1)C(=O)NCC(=O)N[C@H](Cc1c[nH]c2ccccc12)C(=O)N[C@@H](CCCNC(=N)N)C(=O)N[C@@H](Cc1ccccc1)C(N)=O` [Peptide 275] (Ac-[dA]NWN[dP]FG[dW]RF-NH2), on GPR54 [2], the “Inhibition … % Inhibition of Max” value came out at 44% and the IC50 was over 100 nM.
For the molecule `CC(=O)N[C@H](C)C(=O)N[C@@H](CC(N)=O)C(=O)N[C@@H](Cc1c[nH]c2ccccc12)C(=O)N[C@@H](CC(N)=O)C(=O)NCC(=O)N[C@@H](Cc1ccccc1)C(=O)NCC(=O)N[C@H](CC(C)C)C(=O)N[C@@H](CCCNC(=N)N)C(=O)N[C@@H](Cc1ccccc1)C(N)=O` [Peptide 276] (Ac-[dA]NWNGFG[dL]RF-NH2), the “Inhibition … % Inhibition of Max” value on GPR54 [2] stood at 65%.
For `CC(=O)N[C@H](C)C(=O)N[C@@H](CC(N)=O)C(=O)N[C@@H](Cc1c[nH]c2ccccc12)C(=O)N[C@@H](CC(N)=O)C(=O)N[C@H](C)C(=O)N[C@@H](Cc1ccccc1)C(=O)NCC(=O)N[C@@H](CC(C)C)C(=O)N[C@@H](CCCNC(=N)N)C(=O)N[C@@H](Cc1ccccc1)C(N)=O` [Peptide 277] (Ac-[dA]NWN[dA]FGLRF-NH2), the “Inhibition … % Inhibition of Max” value on GPR54 [2] came out at 57%.
For the molecule `CC(=O)N[C@H](C)C(=O)N[C@@H](CC(N)=O)C(=O)N[C@@H](Cc1c[nH]c2ccccc12)C(=O)N[C@@H](CC(N)=O)C(=O)NCC(=O)N[C@@H](Cc1ccccc1)C(=O)NCC(=O)N[C@@H](CC(C)C)C(=O)N[C@H](CCCNC(=N)N)C(=O)N[C@@H](Cc1ccccc1)C(N)=O` [Peptide 278] (Ac-[dA]NWNGFGL[dR]F-NH2), on GPR54 [2], the “Inhibition … % Inhibition of Max” value amounted to 47% and the IC50 was over 200 nM.

For the origin of these results see patent publication US8916681B2, “Compound, use and method” (Medical Research Council, priority 2007, dated 2014).
